Molecules are shown by their SMILES.

In general, IC50 refers to the concentration that inhibits the measured activity by half. The low end stands for greater potency, the high end for weaker potency.

Assay [1] addresses T1, Potassium voltage-gated channel subfamily A member 3 (Homo sapiens, UniProt P22001). Type of assay: cell-based, CHO-K1.
Assay [2] addresses T1, Potassium voltage-gated channel subfamily A member 3. On the set-up: species or system Blood.
For assay [3] the target is unchanged. The experiment in a line: cell-based. Also noted: species or system Blood.

T1 sequence (P22001 whole entry): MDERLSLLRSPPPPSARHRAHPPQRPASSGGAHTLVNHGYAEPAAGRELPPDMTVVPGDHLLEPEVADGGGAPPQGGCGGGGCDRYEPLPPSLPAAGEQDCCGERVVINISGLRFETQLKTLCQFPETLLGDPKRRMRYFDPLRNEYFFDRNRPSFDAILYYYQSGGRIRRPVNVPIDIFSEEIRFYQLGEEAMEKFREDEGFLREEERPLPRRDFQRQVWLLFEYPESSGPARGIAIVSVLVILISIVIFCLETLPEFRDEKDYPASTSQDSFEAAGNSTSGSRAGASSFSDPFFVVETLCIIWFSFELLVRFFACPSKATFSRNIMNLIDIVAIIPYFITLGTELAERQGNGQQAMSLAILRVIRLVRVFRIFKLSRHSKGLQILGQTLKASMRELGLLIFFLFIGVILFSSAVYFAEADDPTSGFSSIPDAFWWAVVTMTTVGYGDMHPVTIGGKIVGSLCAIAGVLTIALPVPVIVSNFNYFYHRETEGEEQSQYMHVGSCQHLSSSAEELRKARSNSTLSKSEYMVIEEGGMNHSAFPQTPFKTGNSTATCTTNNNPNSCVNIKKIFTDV

For `CC[C@H](C)[C@@H]1NC(=O)[C@@H](NC(=O)[C@H](CO)NC(=O)[C@@H](N)CCCNC(=N)N)CSSC[C@@H](C(=O)O)NC(=O)[C@H]([C@@H](C)O)NC(=O)CNC(=O)[C@@H]2CSSC[C@@H]3NC(=O)[C@H](CCC(N)=O)NC(=O)[C@H](Cc4ccccc4)NC(=O)[C@H](C)NC(=O)[C@H]([C@@H](C)O)NC(=O)[C@H](CSSC[C@H](NC(=O)[C@H](Cc4ccccc4)NC(=O)[C@H](CO)NC(=O)[C@H](CC(C)C)NC(=O)[C@H](CCCNC(=N)N)NC(=O)[C@H](Cc4ccc(O)cc4)NC(=O)[C@H](CCCCN)NC(=O)[C@H](CCSC)NC(=O)[C@H](CO)NC(=O)[C@H](Cc4cnc[nH]4)NC(=O)[C@H](CCCCN)NC3=O)C(=O)N[C@@H](CCCNC(=N)N)C(=O)N[C@@H](CCCCN)C(=O)N[C@@H](CCC(=O)O)C(=O)N2)NC(=O)[C@H](CCCNC(=N)N)NC(=O)[C@H](CO)NC(=O)[C@H](CCCCN)NC(=O)[C@@H]2CCCN2C(=O)[C@H]([C@@H](C)CC)NC(=O)[C@H]([C@@H](C)O)NC(=O)[C@H](CC(=O)O)NC1=O`, the values for the IC50 in assay [1], in assay [2] and in assay [3] were 0.234 nM, 0.309 nM and 0.242 nM, respectively.

As for `CC[C@H](C)[C@@H]1NC(=O)[C@@H](NC(=O)[C@H](CO)NC(=O)[C@@H](N)CCCNC(=N)N)CSSC[C@@H](C(=O)O)NC(=O)[C@H]([C@@H](C)O)NC(=O)CNC(=O)[C@@H]2CSSC[C@@H]3NC(=O)[C@H](CCC(N)=O)NC(=O)[C@H](Cc4ccccc4)NC(=O)[C@H](C)NC(=O)[C@H]([C@@H](C)O)NC(=O)[C@H](CSSC[C@H](NC(=O)[C@H](Cc4ccccc4)NC(=O)[C@H](CO)NC(=O)[C@H](CC(C)C)NC(=O)[C@H](CCCNC(=N)N)NC(=O)[C@H](Cc4ccc(O)cc4)NC(=O)[C@H](CCCCN)NC(=O)[C@H](CCSC)NC(=O)[C@H](CO)NC(=O)[C@H](Cc4cnc[nH]4)NC(=O)[C@H](CCCCN)NC3=O)C(=O)N[C@@H](CCCNC(=N)N)C(=O)N[C@@H](CCCCN)C(=O)N[C@@H]([C@@H](C)O)C(=O)N2)NC(=O)[C@H](CCCNC(=N)N)NC(=O)[C@H](CO)NC(=O)[C@H](CCCCN)NC(=O)[C@@H]2CCCN2C(=O)[C@H]([C@@H](C)CC)NC(=O)[C@H]([C@@H](C)O)NC(=O)[C@H](CCCNC(=N)N)NC1=O`, the IC50 in assay [1] was greater than 3.33 nM; in assay [2], 91.7 nM; in assay [3], 40.5 nM.

On to `CC[C@H](C)[C@@H]1NC(=O)[C@@H](NC(=O)[C@H](CO)NC(=O)[C@@H](N)CCCNC(=N)N)CSSC[C@@H](C(=O)O)NC(=O)[C@H]([C@@H](C)O)NC(=O)CNC(=O)[C@@H]2CSSC[C@@H]3NC(=O)[C@H](CCC(N)=O)NC(=O)[C@H](Cc4ccccc4)NC(=O)[C@H](C)NC(=O)[C@H]([C@@H](C)O)NC(=O)[C@H](CSSC[C@H](NC(=O)[C@H](Cc4ccccc4)NC(=O)[C@H](CO)NC(=O)[C@H](CC(C)C)NC(=O)[C@H](CCCNC(=N)N)NC(=O)[C@H](Cc4ccc(O)cc4)NC(=O)[C@H](CCCCN)NC(=O)[C@H](CCSC)NC(=O)[C@H](CO)NC(=O)[C@H](Cc4cnc[nH]4)NC(=O)[C@H](CCCCN)NC3=O)C(=O)N[C@@H](CCCNC(=N)N)C(=O)N[C@@H](CCCCN)C(=O)N[C@@H]([C@@H](C)O)C(=O)N2)NC(=O)[C@H](CCCNC(=N)N)NC(=O)[C@H](CO)NC(=O)[C@H](CCCCN)NC(=O)[C@H](CCCNC(=N)N)NC(=O)[C@H]([C@@H](C)CC)NC(=O)[C@H]([C@@H](C)O)NC(=O)[C@H](CC(=O)O)NC1=O`, for which the IC50 stood at 0.447 nM in assay [1], 1.05 nM in assay [2] and 0.253 nM in assay [3].

For the compound `CC[C@H](C)[C@@H]1NC(=O)[C@@H](NC(=O)[C@H](CO)NC(=O)[C@@H](N)CCCNC(=N)N)CSSC[C@@H](C(=O)O)NC(=O)[C@H]([C@@H](C)O)NC(=O)CNC(=O)[C@@H]2CSSC[C@@H]3NC(=O)[C@H](CCC(N)=O)NC(=O)[C@H](Cc4ccccc4)NC(=O)[C@H](C)NC(=O)[C@H]([C@@H](C)O)NC(=O)[C@H](CSSC[C@H](NC(=O)[C@H](Cc4ccccc4)NC(=O)[C@H](CO)NC(=O)[C@H](CC(C)C)NC(=O)[C@H](CCCNC(=N)N)NC(=O)[C@H](Cc4ccc(O)cc4)NC(=O)[C@H](CCCCN)NC(=O)[C@H](CCSC)NC(=O)[C@H](CO)NC(=O)[C@H](Cc4cnc[nH]4)NC(=O)[C@H](CCCCN)NC3=O)C(=O)N[C@@H](CCCNC(=N)N)C(=O)N[C@@H](CCCCN)C(=O)N[C@@H]([C@@H](C)O)C(=O)N2)NC(=O)[C@H](CCCNC(=N)N)NC(=O)[C@H](CCCNC(=N)N)NC(=O)[C@H](CCCCN)NC(=O)[C@@H]2CCCN2C(=O)[C@H]([C@@H](C)CC)NC(=O)[C@H]([C@@H](C)O)NC(=O)[C@H](CC(=O)O)NC1=O`, the IC50 in assay [1] came out at 0.073 nM; in assay [2] it was 0.129 nM; in assay [3], 0.072 nM.

As for `CC[C@H](C)[C@@H]1NC(=O)[C@@H](NC(=O)[C@H](CO)NC(=O)[C@@H](N)CCCNC(=N)N)CSSC[C@@H](C(=O)O)NC(=O)[C@H]([C@@H](C)O)NC(=O)CNC(=O)[C@@H]2CSSC[C@@H]3NC(=O)[C@H](CCC(N)=O)NC(=O)[C@H](Cc4ccccc4)NC(=O)[C@H](C)NC(=O)[C@H](CCCNC(=N)N)NC(=O)[C@H](CSSC[C@H](NC(=O)[C@H](Cc4ccccc4)NC(=O)[C@H](CO)NC(=O)[C@H](CC(C)C)NC(=O)[C@H](CCCNC(=N)N)NC(=O)[C@H](Cc4ccc(O)cc4)NC(=O)[C@H](CCCCN)NC(=O)[C@H](CCSC)NC(=O)[C@H](CO)NC(=O)[C@H](Cc4cnc[nH]4)NC(=O)[C@H](CCCCN)NC3=O)C(=O)N[C@@H](CCCNC(=N)N)C(=O)N[C@@H](CCCCN)C(=O)N[C@@H]([C@@H](C)O)C(=O)N2)NC(=O)[C@H](CCCNC(=N)N)NC(=O)[C@H](CO)NC(=O)[C@H](CCCCN)NC(=O)[C@@H]2CCCN2C(=O)[C@H]([C@@H](C)CC)NC(=O)[C@H]([C@@H](C)O)NC(=O)[C@H](CC(=O)O)NC1=O`, the figures for the IC50 in assay [1], in assay [2] and in assay [3] were 0.152 nM, 0.635 nM and 0.398 nM, respectively.

Take `CC[C@H](C)[C@@H]1NC(=O)[C@@H](NC(=O)[C@H](CO)NC(=O)[C@@H](N)CCCNC(=N)N)CSSC[C@@H](C(=O)O)NC(=O)[C@H]([C@@H](C)O)NC(=O)CNC(=O)[C@@H]2CSSC[C@@H]3NC(=O)[C@H](CCCNC(=N)N)NC(=O)[C@H](Cc4ccccc4)NC(=O)[C@H](C)NC(=O)[C@H]([C@@H](C)O)NC(=O)[C@H](CSSC[C@H](NC(=O)[C@H](Cc4ccccc4)NC(=O)[C@H](CO)NC(=O)[C@H](CC(C)C)NC(=O)[C@H](CCCNC(=N)N)NC(=O)[C@H](Cc4ccc(O)cc4)NC(=O)[C@H](CCCCN)NC(=O)[C@H](CCSC)NC(=O)[C@H](CO)NC(=O)[C@H](Cc4cnc[nH]4)NC(=O)[C@H](CCCCN)NC3=O)C(=O)N[C@@H](CCCNC(=N)N)C(=O)N[C@@H](CCCCN)C(=O)N[C@@H]([C@@H](C)O)C(=O)N2)NC(=O)[C@H](CCCNC(=N)N)NC(=O)[C@H](CO)NC(=O)[C@H](CCCCN)NC(=O)[C@@H]2CCCN2C(=O)[C@H]([C@@H](C)CC)NC(=O)[C@H]([C@@H](C)O)NC(=O)[C@H](CC(=O)O)NC1=O`: the IC50 in assay [1] is 0.166 nM; in assay [2], 0.492 nM; in assay [3] it was 0.372 nM.

Source of the values: ChEMBL document CHEMBL3608278 (J Med Chem, 2015).
